# Measured values published in patent US20230138851A1, “NOVEL ALKYNE DERIVATIVES” (CARNA BIOSCIENCES, INC., priority 2020, published 2023).
# pIC50: −log10 of the molar value.
# Columns and labels:
# Type in all cases: biochemical
# DYRK2 = molecular target: T1, DYRK2 (Homo sapiens, UniProt Q92630); assay: Inhibition test on activity of DYRK family, mobility shift assay (MSA), DYRK2; conditions: ATP 40 μM, FITC-labeled DYRKtide peptide substrate, room temperature 1 hour; for pIC50: read-out: Inhibitory Activity 2 (IC50 against DYRK2)
# T1 construct: purchased Carna Biosciences, Inc. 04-132
# T1 sequence (Q92630 1-601): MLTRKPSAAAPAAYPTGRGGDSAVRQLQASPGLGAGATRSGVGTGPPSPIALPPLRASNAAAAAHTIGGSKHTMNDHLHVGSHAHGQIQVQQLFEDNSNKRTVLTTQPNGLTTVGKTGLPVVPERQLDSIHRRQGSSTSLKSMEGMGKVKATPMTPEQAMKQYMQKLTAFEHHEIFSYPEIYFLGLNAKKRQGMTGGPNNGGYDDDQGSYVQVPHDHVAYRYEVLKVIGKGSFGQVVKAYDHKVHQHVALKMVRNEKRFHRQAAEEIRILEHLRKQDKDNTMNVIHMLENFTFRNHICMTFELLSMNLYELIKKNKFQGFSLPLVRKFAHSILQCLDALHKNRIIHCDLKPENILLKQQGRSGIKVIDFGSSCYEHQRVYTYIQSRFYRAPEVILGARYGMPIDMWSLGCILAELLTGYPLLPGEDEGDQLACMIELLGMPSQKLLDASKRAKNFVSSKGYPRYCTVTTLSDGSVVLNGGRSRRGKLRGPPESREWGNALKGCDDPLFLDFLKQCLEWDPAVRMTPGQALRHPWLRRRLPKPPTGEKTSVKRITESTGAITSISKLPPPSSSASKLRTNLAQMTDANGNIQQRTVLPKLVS
# Description: (§1) [Inhibition Test on Activity of DYRK Family (DYRK1A, DYRK1B, DYRK2, and […])]
# (§2) (Method for Measuring Kinase Activity)
# (§3) The kinase activity was measured by mobility shift assay (MSA) method using QuickScout Screening Assist™ MSA (commercially available kit manufactured by Carna Biosciences, Inc.). The substrate of the kinase reaction used was an FITC-labeled DYRKtide peptide included in the kit. An assay buffer [20 mM HEPES, 0.01% Triton X-100™, 2 mM dithiothreitol, pH 7.5] was used to create a substrate mixture solution with a substrate (4 μM), MgCl2 (20 mM), and ATP (DYRK1A: 100 μM; DYRK1B: 200 μM; DYRK2: 40 μM; and DYRK3: 20 μM). In addition, kinases (DYRK1A: manufactured by Carna Biosciences, Inc., Cat. No. 04-130; DYRK1B: manufactured by Carna Biosciences, Inc., Cat. No. 04-131; DYRK2; manufactured by Carna Biosciences, Inc., Cat. No. 04-132; and DYRK3; manufactured by Carna Biosciences, Inc., Cat. No. 04-133) were diluted with the assay buffer to prepare enzyme solutions (DYRK1A: 0.2 ng/μL; DYRK1B: 0.08 ng/μL; DYRK2: 0.04 ng/μL; and DYRK3: 0.25 ng/μL). The 10 mM solution of the test compound in DMSO was further diluted with DMSO to 10 levels of the concentration (0.00003 mM, 0.0001 mM, 0.0003 mM, 0.001 mM, 0.003 mM, 0.01 mM, 0.03 mM, 0.1 mM, 0.3 mM, and 1 mM), each of which was subjected to 25-fold dilution with the assay buffer to obtain a drug solution (4% DMSO solution). 5 μL of the drug solution or a control solution (4% DMSO-assay buffer), 5 μL of the substrate mixture solution, and 10 μL of the enzyme solution were mixed in the wells of a polypropylene 384-well plate and allowed to react at room temperature for 1 hour, and then the reaction was quenched by adding 60 μL of the termination buffer included in the kit. Subsequently, the quantities of the substrates (S) and the phosphorylated substrate (P) in the reaction solution were measured using LabChip EZ Reader II system (manufactured by Caliper Life Sciences) according to the protocol of the assay kit.
# (§4) (Method for Evaluating Inhibitory Activity)
# (§5) The heights of the peaks of the “substrate” and the “phosphorylated substrate” were expressed as S and P, respectively, and a blank containing the assay buffer instead of the enzyme solution was also measured.
# (§6) The inhibition rate (%) of the test compound was calculated according to the following equation:
# (§7) Inhibition rate (%)=(1−(C−A)/(B−A))×100
# (§8) wherein, A, B, and C represent P/(P+S) of the blank well, P/(P+S) of the control solution well, and P/(P+S) of the compound-containing well, respectively.
# (§9) The IC50 value was calculated via a regression analysis of the inhibition rate and the test compound concentration (logarithmic value).
# (§10) The inhibiting activities of representative compounds of the present invention are shown against DYRK1A, DYRK1B, DYRK2, and DYRK3 in Tables 7 and 8. The kinase activity inhibitory effect was indicated with the mark *** at an IC50 value of less than 0.01 μM; the mark ** at 0.01 μM or more and less than 0.1 μM; the mark * at 0.1 μM or more and less than 1 μM; and the mark — at 1 μM or more (N.D. indicates not measured).
# DYRK3 = molecular target: T2, DYRK3 (Homo sapiens, UniProt O43781); assay: Inhibition test on activity of DYRK family, mobility shift assay (MSA), DYRK3; conditions: ATP 20 μM, FITC-labeled DYRKtide peptide substrate, room temperature 1 hour; for pIC50: read-out: Inhibitory Activity 3 (IC50 against DYRK3)
# T2 construct: purchased Carna Biosciences, Inc. 04-133
# T2 sequence (O43781 1-588): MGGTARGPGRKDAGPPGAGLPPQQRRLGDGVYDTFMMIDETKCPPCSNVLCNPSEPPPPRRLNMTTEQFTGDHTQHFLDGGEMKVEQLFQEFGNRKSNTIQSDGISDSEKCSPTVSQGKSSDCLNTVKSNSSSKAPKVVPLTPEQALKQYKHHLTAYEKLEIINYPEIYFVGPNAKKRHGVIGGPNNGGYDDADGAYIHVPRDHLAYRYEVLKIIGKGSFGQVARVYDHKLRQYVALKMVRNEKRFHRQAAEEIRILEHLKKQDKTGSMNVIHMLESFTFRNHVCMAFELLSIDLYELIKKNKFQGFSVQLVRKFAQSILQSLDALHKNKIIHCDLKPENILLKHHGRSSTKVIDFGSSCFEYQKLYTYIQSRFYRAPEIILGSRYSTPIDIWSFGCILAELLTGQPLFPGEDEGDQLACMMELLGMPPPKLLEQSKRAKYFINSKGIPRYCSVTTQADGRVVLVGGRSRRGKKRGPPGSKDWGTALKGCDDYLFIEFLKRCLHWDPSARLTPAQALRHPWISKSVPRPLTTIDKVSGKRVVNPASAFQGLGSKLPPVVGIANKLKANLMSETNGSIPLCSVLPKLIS
# Description: as §1, §2, §3, §4, §5, §6, §7, §8, §9, §10
# DYRK1A = molecular target: T3, DYRK1A (Homo sapiens, UniProt Q13627); assay: Inhibition test on activity of DYRK family, mobility shift assay (MSA), DYRK1A; conditions: ATP 100 μM, FITC-labeled DYRKtide peptide substrate, room temperature 1 hour; for pIC50: read-out: Inhibitory Activity 1a (IC50 against DYRK1A)
# T3 construct: purchased Carna Biosciences, Inc. 04-130
# Description: as §1, §2, §3, §4, §5, §6, §7, §8, §9, §10
pIC50 (DYRK2),pIC50 (DYRK3),Inhibitory Activity 1a (IC50 against DYRK1A) (DYRK1A),Inhibitory Activity 2 (IC50 against DYRK2) (DYRK2),Inhibitory Activity 3 (IC50 against DYRK3) (DYRK3),pIC50 (DYRK1A),Structure (SMILES)
6.00 to 7.00,6.00 to 7.00,* * *,,,,"CC#CC1CNC(=O)N1c1nc2c(ccc3nccn32)s1 (racemic) [Example 6, (RS)-1-(imidazo[1,2-a]thiazolo[5,4-e]pyridin-2-yl)-5-(prop-1-yn-1-yl)imidazolidin-2-one]"
≤ 6.00,≤ 6.00,* * *,,,,"CC#CC1CNC(=O)N1c1nc2c(ccc3ocnc32)s1 (racemic) [Example 7, (RS)-5-(prop-1-yn-1-yl)-1-(thiazolo[5′,4′:5,6]benzo[1,2-d]oxazole-7-yl)imidazolidin-2-one]"
6.00 to 7.00,6.00 to 7.00,* *,,,,"C[Si](C)(C)C#CC1CNC(=O)N1c1nc2c3c(ccc2s1)OCC3 (racemic) [Example 11, (RS)-1-(7,8-dihydrobenzofuro[4,5-d]thiazol-2-yl)-5-[(trimethylsilyl)ethynyl]imidazolidin-2-one]"
,,* * *,* *,* *,,"C#CC1CNC(=O)N1c1nc2c3c(ccc2s1)OCC3 (racemic) [Example 12, (RS)-1-(7,8-dihydrobenzofuro[4,5-d]thiazol-2-yl)-5-ethynylimidazolidin-2-on]"
≤ 6.00,≤ 6.00,,,,6.00 to 7.00,"O=C1NCC(C#Cc2ccccc2)N1c1nc2c3c(ccc2s1)OCC3 (racemic) [Example 15, (RS)-1-(7,8-dihydrobenzofuro[4,5-d]thiazol-2-yl)-5-(phenylethynyl)imidazolidin-2-one]"
≤ 6.00,6.00 to 7.00,* *,,,,"CN(C)CC#CC1CNC(=O)N1c1nc2c3c(ccc2s1)OCC3 (racemic) [Example 18, (RS)-1-(7,8-dihydrobenzofuro[4,5-d]thiazol-2-yl)-5-[3-(dimethylamino)prop-1-yn-1-yl]imidazolidin-2-one]"
6.00 to 7.00,6.00 to 7.00,* * *,,,,"O=C1NCC(C#CCO)N1c1nc2c3c(ccc2s1)OCC3 (racemic) [Example 19, (RS)-1-(7,8-dihydrobenzofuro[4,5-d]thiazol-2-yl)-5-(3-hydroxyprop-1-yn-1-yl)imidazolidin-2-one]"
≤ 6.00,≤ 6.00,,,,6.00 to 7.00,"COCC#CC1CNC(=O)N1c1nc2c3c(ccc2s1)OCC3 (racemic) [Example 20, (RS)-1-(7,8-dihydrobenzofuro[4,5-d]thiazol-2-yl)-5-(3-methoxyprop-1-yn-1-yl)imidazolidin-2-one]"
≤ 6.00,6.00 to 7.00,* * *,,,,"O=C1NCC(C#CC2CC2)N1c1nc2c3c(ccc2s1)OCC3 (racemic) [Example 21, (RS)-5-(cyclopropylethynyl)-1-(7,8-dihydrobenzofuro[4,5-d]thiazol-2-yl)imidazolidin-2-one]"
≤ 6.00,≤ 6.00,* *,,,,"CC(C)(O)C#CC1CNC(=O)N1c1nc2c3c(ccc2s1)OCC3 (racemic) [Example 22, (RS)-1-(7,8-dihydrobenzofuro[4,5-d]thiazol-2-yl)-5-(3-hydroxy-3-methylbut-1-yn-1-yl)imidazolidin-2-one]"
6.00 to 7.00,6.00 to 7.00,** *,,,,"CC#CC1CNC(=O)N1c1nc2c(ccc3nc[nH]c32)s1 (racemic) [Example 35, (RS)-1-(8H-imidazo[4′,5′:5,6]benz[1,2-d]thiazol-2-yl)-5-(prop-1-yn-1-yl)imidazolidin-2-one]"
6.00 to 7.00,,* *,,* *,,"CC#CC1CNC(=O)N1c1nc2c(ccc3ncn(CC(C)(C)O)c32)s1 (racemic) [Example 37, (RS)-1-[8-(2-hydroxy-2-methylpropyl)-8H-imidazo[4′,5′;5,6]benz[1,2-d]thiazol-2-yl]-5-(prop-1-yn-1-yl)imidazolidin-2-one]"
6.00 to 7.00,6.00 to 7.00,* * *,,,,"CC#CC1CNC(=O)N1c1nc2c3c(ccc2s1)OCC(C)N3C (racemic) [Example 40, (RS)-1-((RS)-8,9-dimethyl-8,9-dihydro-7H-thiazolo[4′,5′:3,4]benz[1,2-b][1,4]oxazin-2-yl)-5-(prop-1-yn-1-yl)imidazolidin-2-one]"
6.00 to 7.00,6.00 to 7.00,* * *,,,,"CC#CC1CNC(=O)N1c1nc2c3c(ccc2s1)OCCN3CCO (racemic) [Example 41, (RS)-1-[9-(2-hydroxyethyl)-8,9-dihydro-7H-thiazolo[4′,5′:3,4]benz[1,2-b][1,4]oxazin-2-yl]-5-(prop-1-yn-1-yl)imidazolidin-2-one]"
≤ 6.00,6.00 to 7.00,* * *,,,,"CC#CC1CNC(=O)N1c1nc2c3c(ccc2s1)OCCN3CCOC (racemic) [Example 42, (RS)-1-[9-(2-methoxyethyl)-8,9-dihydro-7H-thiazolo[4′,5′:3,4]benz[1,2-b][1,4]oxazin-2-yl]-5-(prop-1-yn-1-yl)imidazolidin-2-one]"
